Activity calls are given as the source filed them. The rule behind the calls is not given here. Bounds are passed on as bounds.

For assay [1], the system named is Sitophilus oryzae. Description: Insecticidal activity against Sitophilus oryzae (rice weevil) infected wheat assessed as mortality at 0.75 ppm applied as spray after 48 hr in presence of diatomaceous earth. Type of assay: functional.
The test system of assay [2] is Sitophilus oryzae. Description: Insecticidal activity against Sitophilus oryzae (rice weevil) infected wheat assessed as mortality at 0.75 ppm applied as spray after 48 hr in absence of diatomaceous earth. Type of assay: functional.
The test system of assay [3] is Sitophilus oryzae. Description: Insecticidal activity against Sitophilus oryzae (rice weevil) infected wheat assessed as mortality at 0.125 to 0.75 ppm applied as spray after 24 hr in absence of diatomaceous earth. The format is functional.
Assay [4] has as its system Sitophilus oryzae. Description: Insecticidal activity against Sitophilus oryzae (rice weevil) infected wheat assessed as decrease in progeny productionc at 0.125 to 0.75 ppm applied as spray after 60 days in presence of diatomaceous earth. The format is functional, organism-based.
Assay [5] deals with Sitophilus oryzae. Description: Insecticidal activity against Sitophilus oryzae (rice weevil) infected wheat assessed as decrease in progeny productionc at 0.125 to 0.75 ppm applied as spray after 60 days in absence of diatomaceous earth. The format is functional, organism-based.
Assay [6] concerns Sitophilus oryzae. Description: Insecticidal activity against Sitophilus oryzae (rice weevil) infected wheat assessed as increase in mortality at 0.125 to 0.25 ppm applied as spray after 14 days in presence of diatomaceous earth. The format is functional, organism-based.
The test system of assay [7] is Tribolium confusum. Description: Insecticidal activity against Tribolium confusum (confused flour beetle) infected wheat assessed as increase in mortality at 0.125 ppm applied as spray after 14 days in absence of diatomaceous earth. Type of assay: functional. Conditions: 336 h.
Assay [8] concerns Tribolium confusum. Put plainly: Insecticidal activity against Tribolium confusum (confused flour beetle) infected wheat assessed as increase in mortality at 0.25 to 0.75 ppm applied as spray after 14 days in absence of diatomaceous earth. The format is functional.
Assay [9] concerns Tribolium confusum. Description: Insecticidal activity against Tribolium confusum (confused flour beetle) infected wheat assessed as increase in mortality at 0.125 to 0.75 ppm applied as spray after 7 days in absence of diatomaceous earth. Type of assay: functional, organism-based.
The subject of assay [10] is Tribolium confusum. Put plainly: Insecticidal activity against Tribolium confusum (confused flour beetle) infected wheat assessed as increase in mortality at 0.125 to 0.75 ppm applied as spray after 48 hr in presence of diatomaceous earth. Type of assay: functional, organism-based.
For assay [11], the system named is Tribolium confusum. Description: Insecticidal activity against Tribolium confusum (confused flour beetle) infected wheat assessed as increase in mortality at 0.125 to 0.75 ppm applied as spray after 24 hr in absence of diatomaceous earth. Type of assay: functional, organism-based.
Assay [12] concerns Sitophilus oryzae. Description: Insecticidal activity against Sitophilus oryzae (rice weevil) infected wheat assessed as increase in mortality at 0.75 ppm applied as spray after 14 days in presence of diatomaceous earth. Type of assay: functional, organism-based.
Assay [13] deals with Sitophilus oryzae. Description: Insecticidal activity against Sitophilus oryzae (rice weevil) infected wheat assessed as increase in mortality at 0.75 ppm applied as spray after 14 days in absence of diatomaceous earth. Type of assay: functional, organism-based.
The subject of assay [14] is Sitophilus oryzae. Description: Insecticidal activity against Sitophilus oryzae (rice weevil) infected wheat assessed as mortality at 0.75 ppm applied as spray after 7 days in absence of diatomaceous earth. Type of assay: functional. Conditions: 168 h.
Assay [15] has as its system Sitophilus oryzae. Put plainly: Insecticidal activity against Sitophilus oryzae (rice weevil) infected wheat assessed as increase in mortality at 0.125 ppm applied as spray after 7 days in absence of diatomaceous earth. The format is functional, organism-based.
The test system of assay [16] is Sitophilus oryzae. Description: Insecticidal activity against Sitophilus oryzae (rice weevil) infected wheat assessed as increase in mortality at 0.125 to 0.25 ppm applied as spray after 48 hr in presence of diatomaceous earth. Type of assay: functional, organism-based.

In general, mortality refers to the percentage killed. On to `CC1(C)C(C=C(Cl)Cl)C1C(=O)OC(C#N)c1ccc(F)c(Oc2ccccc2)c1` (stereo unspecified) [CYFLUTHRIN], for which the mortality at 0.75 ppm with Sitophilus oryzae [1] was 79%; with Sitophilus oryzae [2], 79%; in the assay on Sitophilus oryzae [14] it was greater than 98%. Moreover, the mortality in the assay with Sitophilus oryzae [3] is 6%; with Tribolium confusum [8] it was 100%. Also, the outcome in the assay on Sitophilus oryzae [4], with Sitophilus oryzae [6], in the assay on Tribolium confusum [9], with Tribolium confusum [10], in the assay on Tribolium confusum [11] and in the assay with Sitophilus oryzae [12] was Active. Further, the result in the assay on Sitophilus oryzae [13], in the assay with Sitophilus oryzae [15] and in the assay on Sitophilus oryzae [16] was Active. Also, the result with Sitophilus oryzae [5] was inactive. Besides, the mortality at 0.125 ppm in the assay with Tribolium confusum [7] is greater than 91%.

For the origin of these results see ChEMBL document CHEMBL3045639, “Evaluation of three diatomaceous earth and one natural pyrethrum formulations against pupae of Tribolium confusum DuVal (Coleoptera: Tenebrionidae) on wheat and flour” (2006).
